Columns and labels:
[1] = system: metastatic, castration-resistant prostate cancer; assay: Enzalutamide treatment of WCDT patients with matched biopsies: PSA response and time on treatment; type: in vivo, human; parameters: PSA Change at 12 weeks: unit not given here
Experimental: (§1) Methods for tissue collection have been described previously 48.
By examining the Stand Up to Cancer Foundation/Prostate Cancer Foundation West Coast Dream Team (WCDT) prospective cohort, 21 patients with CRPC who underwent a metastatic tumor biopsy prior to enza and a repeat biopsy at the time of progression and whose tumor cells underwent RNA-sequencing after laser capture microdissection were identified. All progression biopsies were performed prior to discontinuing enza, enabling one to identify resistance mechanisms induced by continued enza treatment.
Bone was the most common site for both pre-treatment and progression biopsies. Eighteen of 21 patients had the same tissue type biopsied at progression. In eight patients, the exact same lesion was biopsied at baseline and progression (FIG. 1B, Table 3). The median time on enza treatment was 226 days.

[2] = system: CRPC tumor biopsy transcriptome; assay: RNA-sequencing differential gene expression (DESeq2), progression versus baseline in converters; parameters: species or system human; details: progression vs baseline samples from the three converters
Experimental: as §1
Core biopsy samples were flash frozen in Optical Cutting Temperature (OCT) for gene expression analysis. Laser capture microdissection was performed on frozen sections to enrich for tumor content 49. Total RNA was isolated (Stratagene Absolutely RNA Nano Prep) (RIN>8) and amplified using NuGEN Ovation RNA seq System V2. Libraries were generated using NuGEN Ovation Ultralow System V2 for Illumina sequencing. RNA seq was performed on the Illumina NextSeq 500, PE75 with at least 100M read pairs. The raw fastq files were first quality checked using FastQC (version 0.11.8) software (http://www.bioinformatics.bbsrc.ac.uk/projects/fastqc/). Fastq files were aligned to hg38 human reference genome and per-gene counts and transcripts per million (TPM) quantified by RSEM 50 (version 1.3.1) based on the gene annotation gencode.v28.annotation.gtf.
Differential expression gene, pathway, and master regulator analysis Differential gene expression analysis was performed using DESeq2 (version 1.22.2). Gene expression differences were considered significant if passing the following criteria: adjusted P-value <0.05, absolute fold change >1.5. For the converter vs non-converter baseline sample comparison, we used the adjusted P-value <0.1. […]

CRPC tumors = assay: Aggarwal cluster designation and Labrecque classification of progression tumors (lineage plasticity); parameters: species or system human; details: 3/21 progression tumors (Aggarwal cluster 2, DNPC by Labrecque)
Experimental: The unsupervised analysis from Aggarwal, et al. 25 identified five clusters using 119 samples. That study identified 528 genes that were the most differentially expressed between the clusters. Using that gene list, cluster assignments for new samples included in this matched biopsy cohort were determined without replicating the unsupervised analysis. First, the sample batch effect between the samples from the previous study and those from the current study was addressed with exponential normalization on the expression data of all samples—old and new. Exponential normalization is a per-sample operation that fits the expression of all genes to a unit exponential distribution. […]
To determine the Labrecque classification, a 26 gene signature used previously to define five phenotypic categories of CRPC 24 was applied: AR-high prostate cancer (ARPC), amphicrine prostate cancer, AR-low prostate cancer (ARLPC), double-negative prostate cancer (DNPC), and neuroendocrine prostate cancer (NEPC) 24. […] Samples were assigned to the phenotype groups by clustering using Euclidean distance calculated by the dist function and visualization using classical multidimensional scaling (MDS) calculated with the cmdscale function in R using the log2(TPM+1) transformed expression profiles of the remaining 25 genes.

CNC(=O)c1ccc(N2C(=S)N(c3ccc(C#N)c(C(F)(F)F)c3)C(=O)C2(C)C)cc1F [enzalutamide]
median time on enza treatment ([1]; 21 patients): 226 days | Median time on enzalutamide, days (SD) ([1]; Table 2, n = 21 patients): 261 days | 50% PSA response to enzalutamide ([1]; number of patients, n = 21): 7 | PSA Change at 12 weeks ([1]; patient DTB_024): 75.05 | PSA Change at 12 weeks ([1]; patient DTB_060): −20.41 | PSA Change at 12 weeks ([1]; patient DTB_063): −74.64 | PSA Change at 12 weeks ([1]; patient DTB_073): 156.81 | PSA Change at 12 weeks ([1]; patient DTB_080): −28.48 | PSA Change at 12 weeks ([1]; patient DTB_089): 181.18 | PSA Change at 12 weeks ([1]; patient DTB_098): −83.74 | PSA Change at 12 weeks ([1]; patient DTB_102): −93.02 | PSA Change at 12 weeks ([1]; patient DTB_111): 113.99 | PSA Change at 12 weeks ([1]; patient DTB_127): 169.29 | PSA Change at 12 weeks ([1]; patient DTB_135): 164.26 | PSA Change at 12 weeks ([1]; patient DTB_137): −10.85 | PSA Change at 12 weeks ([1]; patient DTB_141): −81.04 | PSA Change at 12 weeks ([1]; patient DTB_149): −80.29 | PSA Change at 12 weeks ([1]; patient DTB_167): −88.38 | PSA Change at 12 weeks ([1]; patient DTB_176): −64.76 | PSA Change at 12 weeks ([1]; patient DTB_194): 100.36 | PSA Change at 12 weeks ([1]; patient DTB_210): −83.36 | PSA Change at 12 weeks ([1]; patient DTB_232): −0.55 | PSA Change at 12 weeks ([1]; patient DTB_265): 5.84 | expression of AR, AR target genes (KLK2, KLK3, TMPRSS2) and HOXB13 [2]: markedly decreased expression | enza-induced lineage plasticity and conversion to an AR-independent program, frequency of tumors (CRPC tumors): 14%

Source: US20240009172A1, “COMPOSTIONS AND METHODS FOR TREATING PROSTATE CANCER” (The Regents of the University of Michigan, priority 2022, published 2024)
